Experimental data taken from PMC5444726, “A CD44-specific peptide, RP-1, exhibits capacities of assisting diagnosis and predicting prognosis of gastric cancer” (Oncotarget, 2017).

Assays:
[1] = system: CD44 in gastric carcinoma and surrounding tissues; assay: Immunohistochemistry of human gastric cancer tissue microarray; conditions: for RP-1 staining negative, number (%) / RP-1 staining positive, number (%): % of all 100 cases
Experimental: Prepared paraffin-embedded sections were deparaffinized, rehydrated, retrieved and blocked with 5% BSA (w/v) in PBS at ambient temperature for 30 min. Then, sections were incubated with 100 μM biotin labeled RP-1 peptide or human specific rabbit anti-CD44 monoclonal antibody (1:200, ZSGB-BIO, Beijing, China) overnight at 4°C. After PBS washing for three times, sections were subsequently incubated with streptavidin-HRP (1:500, Proteintech, Wuhan, China) and goat anti-rabbit secondary antibody (1:300, BOSTER, Wuhan, China). Diaminobenzidine (DAB, ZSGB-BIO, Beijing, China) was used as a chromogen. Finally, the sections were counterstained with hematoxylin and mounted with neutral balsam.
Two TMA slides (Shanghai Outdo Biotech Co LTD, Shanghai, China), each containing 100 GC tissues samples (including 66 adenocarcinoma, 19 tubular adenocarcinoma, 8 mucinous adenocarcinoma, 2 undifferentiated carcinoma and 5 signet-ring cell carcinoma tissue samples) and 80 surrounding tissue samples from 100 patients, were used to evaluate the diagnostic and prognostic effects of RP-1. Samples were obtained from treatment-naive patients with written informed consent signed and dated. Age of the 100 patients with GC ranged from 32 to 81 years (mean, 64.4 years). Their clinicopathological characteristics were described in Table 2. The TNM stage of all patients with GC was assessed according to the American Joint Commission for Cancer (AJCC 7th edition) and tumors were histologically classified according to the criteria described by the World Health Organization (2000). The Medical Ethics Committee of Taizhou Hospital of Zhejiang province reviewed and approved all studies.
We performed immunohistochemical staining of TMA slides with RP-1 and human specific anti-CD44 monoclonal antibody by following the procedure described in the section Immunohistochemistry. The immunoreactivity was assessed with the immunohistochemistry score (HSCORE) system, which evaluated the staining intensity and percentages of positive cells stained at a specific magnitude of intensity. The HSCORE was calculated using the equation HSCORE=∑Pi(i) (i = 0, 1, 2, 3, Pi = 0–100%), in which i was the staining intensity (0, no staining; 1, weak staining; 2, moderate staining; 3, strong staining) and Pi was the percentage of positive cells on a scale of 0% to 100%. Positive cell count was assessed in 5 randomly selected fields of vision with a microscope (400×). All immunohistochemical evaluations were conducted by two independent pathologists […].
Receiver–operator curve (ROC) analysis was performed to determine the cut-off score for both RP-1 peptide and anti-CD44 monoclonal antibody. The score closest to the point (0.0, 1.0) with maximum sensitivity and specificity was identified as the cut-off score. Samples with a HSCORE of cut-off value or below were considered as negative staining, otherwise they were considered as positive staining.
Statistical analysis was conducted with SPSS software, version 21.0 (IBM, New York, USA). Kappa values were used to determine the consistency of histological and immunohistochemical results between RP-1 peptide and anti-CD44 antibody. Independent sample t-test was performed to decide existence of statistical difference in fluorescent intensity values between tumor and other normal organs. The ROC analysis was carried out to decide the cut-off value for RP-1 and anti-CD44 antibody. The area under the curve (AUC) was calculated to compare the diagnostic accuracy of RP-1 and anti-CD44 antibody. χ^2-test was used to assess the association between each clinicopathological variable and RP-1 staining intensity, while log-rank test was used for assessing the association between survival and each clinicopathological variable. Multiple Cox proportional hazards regression was performed to verify if RP-1 positivity can be used as an independent risk factor for prognosis of GC. […]

CD44 protein = conditions: peptide screened from 12-mer phage peptide library; ref [25]; cited from earlier work
From the text: The purpose of the current study was to validate the specificity and affinity of RP-1 in both in vitro and in vivo experiment ...

[2] = adenocarcinoma, 66 cases, P = 0.182
[3] = age > 64.4, 46 cases, P = 0.036
[4] = age ≤ 64.4, 54 cases, P = 0.036
[5] = all antibody results, total 100
[6] = clinicopathological stage I, 10 cases, P = 0.526
[7] = clinicopathological stage II, 32 cases, P = 0.526
[8] = clinicopathological stage III, 50 cases, P = 0.526
[9] = clinicopathological stage IV, 8 cases, P = 0.526
[10] = moderately differentiated, 69 cases, P = 0.066
[11] = mucinous adenocarcinoma, 8 cases, P = 0.182
[12] = poorly differentiated, 5 cases, P = 0.066
[13] = signet ring cell carcinoma, 4 cases, P = 0.182
[14] = tubular adenocarcinoma, 19 cases, P = 0.182
[15] = undifferentiated carcinoma, 3 cases, P = 0.182
[16] = well differentiated, 26 cases, P = 0.066

With “WHPWSYLWTQQA [RP-1, CD44-specific peptide … screened from a 12-mer phage peptide library]” the “RP-1 staining negative, number (%)” value [1, 2] was 16 (16.0), the “RP-1 staining positive, number (%)” value [1, 2] was 50 (50.0) and the “RP-1 staining negative, number (%)” value [1, 3] was 12 (12.0). The “RP-1 staining positive, number (%)” value [1, 3] was 34 (34.0), the “RP-1 staining negative, number (%)” value [1, 4] was 15 (15.0) and the “RP-1 staining positive, number (%)” value [1, 4] was 39 (39.0). For the same sequence, the “number of pericarcinomatous tissues RP-1 negative” value ([1]; all antibody results, total 80) was 70, the “number of pericarcinomatous tissues RP-1 positive” value ([1]; all antibody results, total 80) was 10 and the “number of gastric carcinoma tissues RP-1 negative” value [1, 5] was 27. For the same sequence, the “number of gastric carcinoma tissues RP-1 positive” value [1, 5] was 73, the “number of gastric carcinoma tissues RP-1 negative” value ([1]; antibody negative) was 18 and the “number of gastric carcinoma tissues RP-1 positive” value ([1]; antibody negative) was 18. The “number of pericarcinomatous tissues RP-1 negative” value ([1]; antibody negative) was 56, the “number of pericarcinomatous tissues RP-1 positive” value ([1]; antibody negative) was 9 and the “number of gastric carcinoma tissues RP-1 negative” value ([1]; antibody positive) was 9. For the same sequence, the “number of gastric carcinoma tissues RP-1 positive” value ([1]; antibody positive) was 55, the “number of pericarcinomatous tissues RP-1 negative” value ([1]; antibody positive) was 14 and the “number of pericarcinomatous tissues RP-1 positive” value ([1]; antibody positive) was 1. For the same sequence, the “RP-1 staining negative, number (%)” value [1, 6] was 4 (4.0), the “RP-1 staining positive, number (%)” value [1, 6] was 6 (6.0) and the “RP-1 staining negative, number (%)” value [1, 7] was 10 (10.0). The “RP-1 staining positive, number (%)” value [1, 7] was 22 (22.0), the “RP-1 staining negative, number (%)” value [1, 8] was 12 (12.0) and the “RP-1 staining positive, number (%)” value [1, 8] was 38 (38.0). For the same sequence, the “RP-1 staining negative, number (%)” value [1, 9] was 1 (1.0), the “RP-1 staining positive, number (%)” value [1, 9] was 7 (7.0) and the “RP-1 staining negative, number (%)” value ([1]; died, 69 cases, P < 0.001) was 11 (11.0). The “RP-1 staining positive, number (%)” value ([1]; died, 69 cases, P < 0.001) was 58 (58.0), the “RP-1 staining negative, number (%)” value ([1]; female, 36 cases, P = 0.895) was 10 (10.0) and the “RP-1 staining positive, number (%)” value ([1]; female, 36 cases, P = 0.895) was 26 (26.0). The “RP-1 staining negative, number (%)” value ([1]; male, 64 cases, P = 0.895) was 17 (17.0), the “RP-1 staining positive, number (%)” value ([1]; male, 64 cases, P = 0.895) was 47 (47.0) and the “RP-1 staining negative, number (%)” value [1, 10] was 21 (21.0). For the same sequence, the “RP-1 staining positive, number (%)” value [1, 10] was 53 (53.0), the “RP-1 staining negative, number (%)” value [1, 11] was 5 (5.0) and the “RP-1 staining positive, number (%)” value [1, 11] was 3 (3.0). For the same sequence, the “RP-1 staining negative, number (%)” value ([1]; pM0, 91 cases, P = 0.260) was 26 (26.0), the “RP-1 staining positive, number (%)” value ([1]; pM0, 91 cases, P = 0.260) was 65 (65.0) and the “RP-1 staining negative, number (%)” value ([1]; pM1, 9 cases, P = 0.260) was 1 (1.0). The “RP-1 staining positive, number (%)” value ([1]; pM1, 9 cases, P = 0.260) was 8 (8.0), the “RP-1 staining negative, number (%)” value ([1]; pN0, 27 cases, P = 0.101) was 6 (6.0) and the “RP-1 staining positive, number (%)” value ([1]; pN0, 27 cases, P = 0.101) was 21 (21.0). The “RP-1 staining negative, number (%)” value ([1]; pN1, 15 cases, P = 0.101) was 8 (8.0), the “RP-1 staining positive, number (%)” value ([1]; pN1, 15 cases, P = 0.101) was 7 (7.0) and the “RP-1 staining negative, number (%)” value ([1]; pN2, 28 cases, P = 0.101) was 6 (6.0). The “RP-1 staining positive, number (%)” value ([1]; pN2, 28 cases, P = 0.101) was 22 (22.0), the “RP-1 staining negative, number (%)” value ([1]; pN3, 30 cases, P = 0.101) was 7 (7.0) and the “RP-1 staining positive, number (%)” value ([1]; pN3, 30 cases, P = 0.101) was 23 (23.0). For the same sequence, the “RP-1 staining negative, number (%)” value ([1]; pT1, 8 cases, P = 0.399) was 3 (3.0), the “RP-1 staining positive, number (%)” value ([1]; pT1, 8 cases, P = 0.399) was 5 (5.0) and the “RP-1 staining negative, number (%)” value ([1]; pT2, 9 cases, P = 0.399) was 1 (1.0). For the same sequence, the “RP-1 staining positive, number (%)” value ([1]; pT2, 9 cases, P = 0.399) was 6 (6.0), the “RP-1 staining negative, number (%)” value ([1]; pT3, 66 cases, P = 0.399) was 20 (20.0) and the “RP-1 staining positive, number (%)” value ([1]; pT3, 66 cases, P = 0.399) was 45 (45.0). The “RP-1 staining negative, number (%)” value ([1]; pT4, 17 cases, P = 0.399) was 3 (3.0), the “RP-1 staining positive, number (%)” value ([1]; pT4, 17 cases, P = 0.399) was 17 (17.0) and the “RP-1 staining negative, number (%)” value [1, 12] was 0 (0.0). The “RP-1 staining positive, number (%)” value [1, 12] was 11 (11.0), the “RP-1 staining negative, number (%)” value [1, 13] was 1 (1.0) and the “RP-1 staining positive, number (%)” value [1, 13] was 4 (4.0). For the same sequence, the “RP-1 staining negative, number (%)” value ([1]; survived, 31 cases, P < 0.001) was 16 (16.0), the “RP-1 staining positive, number (%)” value ([1]; survived, 31 cases, P < 0.001) was 15 (15.0) and the “HSCORE of GC samples versus surrounding tissue” value ([1]; t-test, P < 0.001) was “significantly higher”. For the same sequence, the “cell types stained positive” value ([1]; tissue microarray, gastric carcinoma and surrounding tissue) was “positive only in tumor cells”, the “RP-1 staining negative, number (%)” value [1, 14] was 5 (5.0) and the “RP-1 staining positive, number (%)” value [1, 14] was 14 (14.0). The “RP-1 staining negative, number (%)” value [1, 15] was 0 (0.0), the “RP-1 staining positive, number (%)” value [1, 15] was 2 (2.0) and the “RP-1 staining negative, number (%)” value [1, 16] was 6 (6.0). For the same sequence, the “RP-1 staining positive, number (%)” value [1, 16] was 9 (9.0) and the “binding to CD44 protein” value (CD44 protein) was “can specifically bind to CD44 protein”.
